From article PMC5228208 (MedChemComm, 2016)

Assays:
HIV RT RNaseH = format: binding, HIV-1; conditions: natural product
HIV = conditions: natural products; reported previously, ref [10a]; cited from earlier work

Compound | HIV RT RNaseH Assays ThermoFluor ΔTm (HIV RT RNaseH) [°C] | Cell-Based Assays Antiviral EC50 (HIV)
CC(C)c1ccc(O)c(=O)c(O)c1 [β-thujaplicinol] | 2.34 | n.p. (‘n.p.’ indicates no protective effects (<35% cell viability throughout assay))
manicol |  | n.p. (‘n.p.’ indicates no protective effects (<35% cell viability throughout assay))
